13 compounds from PubChem BioAssay (NCI) can be followed below.

Some test systems named below: 786-0 renal; A498 renal; A549 NSCLC; IGROV1 ovarian; OVCAR-3 ovarian; OVCAR-4 ovarian; RPMI-8226 leukemia; SNB-19 CNS; NCI-H460 lung; MDA-MB-435.
Test in all cases: NCI-60 cell line screen, 48 h

Values joined by “and” are separate entries in the source; they are usually repeats but may differ in a detail not shown here. Identical values can stand only once.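 Values below derive from 48-hour exposures of cells grown in 96-well plates, with endpoints linearly interpolated between the two concentrations bracketing the appropriate inhibition level. GI50 marks 50% less growth. The concentration for full growth arrest is given as TGI.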

In the case of `CN(C)CCNC(=O)c1cccc2cc3c(Cl)cccc3nc12`, the TGI in the experiment with 786-0 renal was more than 20.2 µM; in the experiment with A498 renal it was 3.21 µM; in the experiment on A549 NSCLC, 9.35 µM; in the experiment with IGROV1 ovarian, 6.96 µM; in the experiment on OVCAR-3 ovarian, 4.9 µM; in the experiment on OVCAR-4 ovarian it was 8.15 µM. Moreover, the TGI stood at 14.2 µM in the experiment on RPMI-8226 leukemia and 7.32 µM in the experiment on SNB-19 CNS.

In the case of `O=C([CH-]C(=O)c1ccccc1)c1ccccc1.[CH-]1CCCCC1.[CH-]1CCCCC1.[CH-]1CCCCC1.[Sn+4]`, the GI50 in the experiment with 786-0 renal is 4.25 µM; in the experiment on A498 renal, 15.4 µM; in the experiment with A549 NSCLC it was 15.5 µM; with IGROV1 ovarian it was 11.8 µM; with NCI-H460 lung, 8.88 µM; in the experiment with OVCAR-3 ovarian it was 5.89 µM. Also, the GI50 in the experiment on RPMI-8226 leukemia was 2.32 µM; in the experiment with SNB-19 CNS it was 5.43 µM. Besides, the TGI was 15.1 µM in the experiment with 786-0 renal; 28.9 µM in the experiment with A498 renal; 38.6 µM in the experiment with A549 NSCLC; 33.4 µM with IGROV1 ovarian; 19.8 µM in the experiment on OVCAR-3 ovarian; 5.22 µM in the experiment with RPMI-8226 leukemia. In the experiment with SNB-19 CNS, this compound displayed a TGI of 18.4 µM.

With `CNC(=O)c1c(NC(=O)c2ccc(C(C)(C)C)cc2)sc2c(CN(C)C)c(O)ccc12`, the GI50 is 1.74 µM in the experiment with 786-0 renal, 1.8 µM in the experiment with MDA-MB-435 and 1.14 µM in the experiment on NCI-H460 lung. In addition, the values for the TGI in the experiment with 786-0 renal, in the experiment with MDA-MB-435 and in the experiment on NCI-H460 lung were 3.3 µM, 3.34 µM and 2.53 µM, respectively.

Take `O=C1C(c2ccc(Br)cc2)=[N+]([O-])c2ccccc21`: the TGI in the experiment with 786-0 renal turned out to be 30.9 µM; with A498 renal, 56.1 µM; in the experiment with A549 NSCLC, 41.2 µM; in the experiment on IGROV1 ovarian, 33.8 µM; in the experiment on NCI-H460 lung, 34.8 µM; in the experiment on OVCAR-3 ovarian, 28.2 µM. The TGI was more than 100 µM with RPMI-8226 leukemia and 42.3 µM in the experiment with SNB-19 CNS.

In the case of `CCCCCCCCCCCCCCCCCCn1cc[n+](C)c1`, the GI50 in the experiment with 786-0 renal was 0.952 µM; in the experiment on A498 renal it was 1.07 µM; with IGROV1 ovarian, 0.253 µM and 0.516 µM; in the experiment on NCI-H460 lung it was 0.521 µM and 0.659 µM; in the experiment on OVCAR-3 ovarian, 0.366 µM; in the experiment with OVCAR-4 ovarian, 0.645 µM and 0.518 µM. For the same compound, the GI50 in the experiment on RPMI-8226 leukemia was 0.0268 µM; in the experiment with SNB-19 CNS, 1.22 µM and 1.18 µM. Further, the TGI in the experiment with 786-0 renal is 3.32 µM; with A498 renal it was 3.09 µM; in the experiment with NCI-H460 lung it was 1.8 µM and 2.11 µM; in the experiment on OVCAR-3 ovarian it was 1.27 µM; in the experiment with RPMI-8226 leukemia it was 0.233 µM; in the experiment with SNB-19 CNS, 3.57 µM and 2.42 µM.

On to `CCOP(=O)(OCC)C1CCCOC1=O` (stereo unspecified), for which the TGI in the experiment on 786-0 renal, in the experiment on A498 renal, in the experiment with A549 NSCLC, in the experiment with IGROV1 ovarian, with NCI-H460 lung and with OVCAR-3 ovarian was more than 100 µM in each case. For the same compound, the TGI with OVCAR-4 ovarian, in the experiment with RPMI-8226 leukemia and with SNB-19 CNS was more than 100 µM throughout.

Turning to `COCN1COCN=C1NC#N`, the TGI with 786-0 renal, with A498 renal, in the experiment with A549 NSCLC, with IGROV1 ovarian, with NCI-H460 lung and in the experiment with OVCAR-3 ovarian was more than 100 µM each time. Besides, the TGI in the experiment with OVCAR-4 ovarian, in the experiment with RPMI-8226 leukemia and in the experiment on SNB-19 CNS was more than 100 µM in each case.

`O=[N+]([O-])C=C(c1ccc(Cl)cc1)c1ccc(Cl)cc1`: the TGI is 30.6 µM with 786-0 renal; 36.2 µM in the experiment with A498 renal; 46.7 µM in the experiment with A549 NSCLC; 48.1 µM in the experiment on IGROV1 ovarian; 36.7 µM in the experiment on NCI-H460 lung; 27.6 µM in the experiment with OVCAR-4 ovarian. Further, the TGI in the experiment on RPMI-8226 leukemia came to 34 µM; with SNB-19 CNS, 36.5 µM.

Turning to `COc1ccc(-c2nc(-c3ccc(C)cc3)cn3ccnc23)cc1`, the GI50 is 8.6 µM with 786-0 renal; 3.97 µM with A549 NSCLC; 2.43 µM with IGROV1 ovarian; 1.76 µM with MDA-MB-435; 2.53 µM in the experiment on NCI-H460 lung; 4.46 µM in the experiment on OVCAR-3 ovarian. The GI50 was 2.89 µM in the experiment with RPMI-8226 leukemia and 13.8 µM in the experiment on SNB-19 CNS. For the same compound, the TGI was 45.6 µM in the experiment with 786-0 renal; more than 50 µM in the experiment with A549 NSCLC; more than 50 µM in the experiment with IGROV1 ovarian; more than 50 µM with MDA-MB-435; 20.1 µM with NCI-H460 lung; more than 50 µM in the experiment with OVCAR-3 ovarian. Further, the TGI with RPMI-8226 leukemia and in the experiment on SNB-19 CNS was more than 50 µM each time.

In the case of `COc1ccc(CN2c3ccccc3Sc3ccccc32)c(C(F)(F)F)c1`, the GI50 with 786-0 renal was 9.05 µM; in the experiment on A498 renal, 0.372 µM; in the experiment on A549 NSCLC, 0.807 µM; with IGROV1 ovarian, 3.43 µM; in the experiment on NCI-H460 lung, 0.456 µM; in the experiment on OVCAR-3 ovarian it was 0.513 µM. Further, the GI50 in the experiment on OVCAR-4 ovarian is 2.17 µM; in the experiment on RPMI-8226 leukemia it was 3 µM; in the experiment with SNB-19 CNS, 3.8 µM. The TGI is more than 100 µM with 786-0 renal; more than 100 µM with A498 renal; 68.5 µM with A549 NSCLC; more than 100 µM in the experiment with IGROV1 ovarian; more than 100 µM with NCI-H460 lung; 24.3 µM in the experiment on OVCAR-3 ovarian. Moreover, the TGI with OVCAR-4 ovarian was more than 100 µM; in the experiment with RPMI-8226 leukemia, 31.5 µM; in the experiment on SNB-19 CNS, more than 100 µM.

For the compound `CN(C)C(=N/O)/C(=N\O)N(C)C`, the TGI in the experiment with 786-0 renal, in the experiment on A498 renal, with A549 NSCLC, in the experiment with IGROV1 ovarian, with NCI-H460 lung and with OVCAR-4 ovarian was more than 100 µM throughout. In addition, the TGI with RPMI-8226 leukemia and with SNB-19 CNS was more than 100 µM throughout.

As for `c1ccc(C2OC3(CCC[C@H]4C[C@H]43)O[C@H]2c2ccccc2)cc1` (stereo partly specified), the TGI in the experiment with 786-0 renal, in the experiment on A498 renal, in the experiment on A549 NSCLC, with IGROV1 ovarian, in the experiment on NCI-H460 lung and with OVCAR-3 ovarian was more than 100 µM each time. The TGI with OVCAR-4 ovarian is more than 100 µM; with RPMI-8226 leukemia, 96.9 µM; in the experiment with SNB-19 CNS, more than 100 µM.

On to `C[CH2][Ge]([CH2]C)([CH2]C)[O]C(=O)C(OC(C)=O)c1ccccc1` (stereo unspecified), for which the GI50 in the experiment on 786-0 renal, in the experiment with A498 renal, with A549 NSCLC, in the experiment with IGROV1 ovarian, in the experiment with NCI-H460 lung and with OVCAR-3 ovarian was more than 100 µM each time. The GI50 in the experiment with OVCAR-4 ovarian was more than 100 µM; in the experiment on RPMI-8226 leukemia, 31 µM; with SNB-19 CNS, more than 100 µM. Besides, the TGI in the experiment on 786-0 renal, with A498 renal, with A549 NSCLC, in the experiment on IGROV1 ovarian, with NCI-H460 lung and in the experiment on OVCAR-3 ovarian was more than 100 µM throughout. Also, the TGI with OVCAR-4 ovarian, with RPMI-8226 leukemia and in the experiment with SNB-19 CNS was more than 100 µM in each case.
